Source: paper PMC3502511, “Inhibition of the Prokaryotic Pentameric Ligand-Gated Ion Channel ELIC by Divalent Cations” (PLoS Biology, 2012)

Assays:
ELIC D158A = molecular target: T1, ELIC D158A (Dickeya chrysanthemi, UniProt P0C7B7, D158A/INS163G); experiment: Two-electrode voltage clamp, ELIC D158A in oocytes; type: cell-based, Erwinia chrysanthemi; conditions: agonist cysteamine
T1 construct: expressed in transfected cells; host or cells: X. laevis oocytes
Method: (§1) Constructs containing the gene of either the WT or mutant channels preceded by the signal sequence of the chicken α7nAchR were cloned into the pTLN vector for expression in X. laevis oocytes. After linearization of the plasmid DNA by MluI, capped complementary RNA was transcribed with the mMessage mMachine kit (Ambion) and purified with the RNeasy kit (Qiagen). For expression, 1–50 ng of RNA was injected into defolliculated oocytes. Two-electrode voltage clamp measurements were performed 1 d after injection at 20°C (OC-725B, Warner Instrument Corp.). Currents were recorded in bath solutions containing 10 mM HEPES (pH 7), 130 mM NaCl, and the indicated concentrations of cysteamine and divalent cations. In case of solutions containing Zn^2+, cysteamine was replaced by propylamine. The membrane potential in all dose–response measurements was set to −40 mV. As ELIC is permeable to divalent cations, we tested if endogenous calcium-activated chloride channels affected our measurements. To chelate intracellular calcium ions, the oocytes were incubated for 15 to 30 min in bath solutions lacking divalent ions but containing 10 µM BAPTA-AM.

ELIC = molecular target: T2, ELIC (Dickeya chrysanthemi, UniProt P0C7B7, INS163G); conditions: single channel data; ref Marabelli et al., in preparation; cited from earlier work
T2 construct: expressed in transfected cells; host or cells: HEK 293 cells (ATCC CRL-1573), pcDNA3

ELIC D86A = molecular target: T3, ELIC D86A (Dickeya chrysanthemi, UniProt P0C7B7, D86A/INS163G); experiment: Two-electrode voltage clamp, ELIC D86A in oocytes; type: cell-based, Erwinia chrysanthemi; conditions: agonist cysteamine
T3 construct: expressed in transfected cells; host or cells: X. laevis oocytes
Method: as §1

ELIC WT = molecular target: T4, ELIC WT (Dickeya chrysanthemi, UniProt P0C7B7); experiment: cell-based; type: cell-based, Erwinia chrysanthemi; conditions: agonist cysteamine
T4 construct: expressed in transfected cells; host or cells: X. laevis oocytes (cRNA injection, pTLN vector)
Method: as §1

ELIC D113A/D158A = molecular target: T5, ELIC D113A/D158A (Dickeya chrysanthemi, UniProt P0C7B7, D113A/D158A/INS163G); experiment: cell-based; type: cell-based, Erwinia chrysanthemi; conditions: 113A/158A, agonist cysteamine
T5 construct: expressed in transfected cells; host or cells: X. laevis oocytes
Method: as §1

ELIC E150Q = molecular target: T6, ELIC E150Q (Dickeya chrysanthemi, UniProt P0C7B7, E150Q/INS163G); experiment: Two-electrode voltage clamp, ELIC E150Q in oocytes; type: cell-based, Erwinia chrysanthemi; conditions: agonist cysteamine
T6 construct: expressed in transfected cells; host or cells: X. laevis oocytes
Method: as §1

ELIC N251A = molecular target: T7, ELIC N251A (Dickeya chrysanthemi, UniProt P0C7B7, N250A); experiment: Two-electrode voltage clamp, ELIC N251A in oocytes; type: cell-based, Erwinia chrysanthemi; conditions: agonist cysteamine
T7 construct: expressed in transfected cells; host or cells: X. laevis oocytes
Method: as §1

ELIC D113N = molecular target: T8, ELIC D113N (Dickeya chrysanthemi, UniProt P0C7B7, D113N/INS163G); experiment: Two-electrode voltage clamp, ELIC D113N in oocytes; type: cell-based, Erwinia chrysanthemi; conditions: agonist cysteamine
T8 construct: expressed in transfected cells; host or cells: X. laevis oocytes
Method: as §1

ELIC R91A = molecular target: T9, ELIC R91A (Dickeya chrysanthemi, UniProt P0C7B7, INS163G/R91A); experiment: Two-electrode voltage clamp, ELIC R91A in oocytes; type: cell-based, Erwinia chrysanthemi; conditions: R91A, agonist cysteamine
T9 construct: expressed in transfected cells; host or cells: X. laevis oocytes
Method: as §1

ELIC E150A = molecular target: T10, ELIC E150A (Dickeya chrysanthemi, UniProt P0C7B7, E150A/INS163G); experiment: Two-electrode voltage clamp, ELIC E150A in oocytes; type: cell-based, Erwinia chrysanthemi; conditions: agonist cysteamine
T10 construct: expressed in transfected cells; host or cells: X. laevis oocytes
Method: as §1

ELIC S84A [1] = molecular target: T11, ELIC S84A (Dickeya chrysanthemi, UniProt P0C7B7, INS163G/S84A); experiment: Two-electrode voltage clamp, ELIC S84A in oocytes; type: cell-based, Erwinia chrysanthemi; conditions: S84A, agonist cysteamine
T11 construct: expressed in transfected cells; host or cells: X. laevis oocytes
Method: as §1

ELIC S84A [2] = experiment: Two-electrode voltage clamp, ELIC S84A in oocytes; type: cell-based, Erwinia chrysanthemi; conditions: S84A as printed in the N251A line (r30); Ca^2+ 10 mM; agonist cysteamine
Method: as §1

NCCS [cysteamine] showed an EC50 (ELIC D158A; Ca^2+ 0 mM) of 1780 µM, an EC50 (ELIC D158A; Ca^2+ 1 mM) of 1790 µM and an EC50 (ELIC D158A; Ca^2+ 5 mM) of 3330 µM. The EC50 (ELIC D158A; Ca^2+ 10 mM) was 5430 µM, the EC50 (ELIC D158A; Ca^2+ 20 mM) was 9380 µM and the “maximum Popen” value (ELIC) was 98%. It also gave an EC50 (ELIC D86A; Ca^2+ 0 mM) of 570 µM, an EC50 (ELIC D86A; Ca^2+ 1 mM) of 2300 µM and an EC50 (ELIC D86A; Ca^2+ 5 mM) of 5310 µM. It also gave an EC50 (ELIC D86A; Ca^2+ 10 mM) of 11200 µM, an EC50 (ELIC WT; WT/0.25Ca^2+, ACh 0 mM) of 640 µM and an EC50 (ELIC WT; WT/0.25Ca^2+, ACh 1 mM) of 1160 µM. For the same compound, the EC50 (ELIC WT; WT/0.25Ca^2+, ACh 5 mM) was 3460 µM, the EC50 (ELIC WT; WT/0.25Ca^2+, ACh 10 mM) was 5080 µM and the EC50 (ELIC WT; WT/0.5Ca^2+, ACh 0 mM) was 1000 µM. The EC50 (ELIC WT; WT/0.5Ca^2+, ACh 1 mM) was 1830 µM, the EC50 (ELIC WT; WT/0.5Ca^2+, ACh 5 mM) was 4030 µM and the EC50 (ELIC WT; WT/0.5Ca^2+, ACh 10 mM) was 8450 µM. The EC50 (ELIC WT; WT/1Ca^2+, ACh 0 mM) was 1730 µM, the EC50 (ELIC WT; WT/1Ca^2+, ACh 1 mM) was 2680 µM and the EC50 (ELIC WT; WT/1Ca^2+, ACh 5 mM) was 5120 µM. The EC50 (ELIC WT; WT/1Ca^2+, ACh 10 mM) was 8240 µM, the EC50 (ELIC WT; WT/BAPTA, Ca^2+ 0 mM) was 360 µM and the EC50 (ELIC WT; WT/BAPTA, Ca^2+ 0.25 mM) was 840 µM. For the same compound, the EC50 (ELIC WT; WT/BAPTA, Ca^2+ 0.5 mM) was 1070 µM, the EC50 (ELIC WT; WT/BAPTA, Ca^2+ 1.0 mM) was 2230 µM and the EC50 (ELIC WT; WT, ACh 1 mM) was 570 µM. The EC50 (ELIC WT; WT, ACh 5.0 mM) was 1490 µM, the EC50 (ELIC WT; WT, ACh 10.0 mM) was 2250 µM and the EC50 (ELIC WT; WT, Ba^2+ 1 mM) was 760 µM. For the same compound, the EC50 (ELIC WT; WT, Ba^2+ 5 mM) was 2680 µM, the EC50 (ELIC WT; WT, Ba^2+ 10 mM) was 5270 µM and the EC50 (ELIC WT; WT, Ca^2+ 0 mM) was 360 µM. It also gave an EC50 (ELIC WT; WT, Ca^2+ 0.1 mM) of 350 µM, an EC50 (ELIC WT; WT, Ca^2+ 0.25 mM) of 640 µM and an EC50 (ELIC WT; WT, Ca^2+ 0.5 mM) of 1000 µM. For the same compound, the EC50 (ELIC WT; WT, Ca^2+ 1.0 mM) was 1730 µM, the EC50 (ELIC WT; WT, Ca^2+ 2.5 mM) was 2460 µM and the EC50 (ELIC WT; WT, Ca^2+ 5.0 mM) was 4370 µM. It also gave an EC50 (ELIC WT; WT, Mg^2+ 1 mM) of 1040 µM, an EC50 (ELIC WT; WT, Mg^2+ 5 mM) of 3050 µM and an EC50 (ELIC WT; WT, Mg^2+ 10 mM) of 5310 µM. For the same compound, the EC50 (ELIC WT; WT, Sr^2+ 1 mM) was 750 µM, the EC50 (ELIC WT; WT, Sr^2+ 5 mM) was 2110 µM and the EC50 (ELIC WT; WT, Sr^2+ 10 mM) was 3410 µM. It also gave an EC50 (ELIC D113A/D158A; Ba^2+ 1 mM) of 3070 µM, an EC50 (ELIC D113A/D158A; Ba^2+ 5 mM) of 3070 µM and an EC50 (ELIC D113A/D158A; Ba^2+ 10 mM) of 5420 µM. The EC50 (ELIC D113A/D158A; Ca^2+ 0 mM) was 2330 µM, the EC50 (ELIC D113A/D158A; Ca^2+ 1 mM) was 1590 µM and the EC50 (ELIC D113A/D158A; Ca^2+ 5 mM) was 1810 µM. It also gave an EC50 (ELIC D113A/D158A; Ca^2+ 10 mM) of 2960 µM, an EC50 (ELIC D113A/D158A; Ca^2+ 25 mM) of 3350 µM and an EC50 (ELIC E150Q; Ca^2+ 0 mM) of 2920 µM. The EC50 (ELIC E150Q; Ca^2+ 1 mM) was 5290 µM, the EC50 (ELIC E150Q; Ca^2+ 5 mM) was 14600 µM and the EC50 (ELIC E150Q; Ca^2+ 10 mM) was 21900 µM. The EC50 (ELIC N251A; Ca^2+ 0 mM) was 290 µM, the EC50 (ELIC N251A; Ca^2+ 1 mM) was 840 µM and the EC50 (ELIC N251A; Ca^2+ 5 mM) was 1900 µM. It also gave an EC50 (ELIC D113N; Ca^2+ 0 mM) of 920 µM, an EC50 (ELIC D113N; Ca^2+ 1 mM) of 1810 µM and an EC50 (ELIC D113N; Ca^2+ 5 mM) of 5590 µM. The EC50 (ELIC D113N; Ca^2+ 10 mM) was 9780 µM, the EC50 (ELIC R91A; ACh 1 mM) was 400 µM and the EC50 (ELIC R91A; ACh 5 mM) was 880 µM. The EC50 (ELIC R91A; ACh 10 mM) was 1780 µM, the EC50 (ELIC R91A; Ca^2+ 0 mM) was 90 µM and the EC50 (ELIC R91A; Ca^2+ 0.5 mM) was 240 µM. The EC50 (ELIC R91A; Ca^2+ 1 mM) was 410 µM, the EC50 (ELIC R91A; Ca^2+ 5 mM) was 920 µM and the EC50 (ELIC R91A; TMA 10 mM) was 230 µM. For the same compound, the EC50 (ELIC R91A; TMA 25 mM) was 330 µM, the EC50 (ELIC R91A; TMA 50 mM) was 590 µM and the EC50 (ELIC E150A; Ca^2+ 0 mM) was 1400 µM. The EC50 (ELIC E150A; Ca^2+ 1 mM) was 2200 µM, the EC50 (ELIC E150A; Ca^2+ 5 mM) was 6100 µM and the EC50 (ELIC E150A; Ca^2+ 10 mM) was 8990 µM. It also gave an EC50 (ELIC S84A [1]; Ca^2+ 0 mM) of 360 µM, an EC50 (ELIC S84A [1]; Ca^2+ 1 mM) of 1550 µM and an EC50 (ELIC S84A [1]; Ca^2+ 5 mM) of 2740 µM. The EC50 (ELIC S84A [1]; Ca^2+ 10 mM) was 5430 µM and the EC50 (ELIC S84A [2]) was 5310 µM.
